Source: patent publication US20250154188A1, “C-GLYCOSIDES AS ANTI-INFLAMMATORY AGENTS” (UNIVERSITY OF PITTSBURGH - OF THE COMMONWEALTH SYSTEM OF …, priority 2022, published 2025)

Legend:
mice with NEC [1] = experiment: Mouse NEC model, ileal inflammation marker mRNA (qRT-PCR); assay type: in vivo; details: neonatal mice, oral gavage 10 mg per kg body weight per day during NEC induction; FIG. 3-7
Text: Mouse NEC model. Experimental NEC was induced in a well validated and reproducible model in 7-day-old mice of either gender, which were randomly divided into control and test groups, by gavage feeding newborn mice with formula containing Similac Advance infant formula (Abbott Nutrition): Esbilac (PetAg) canine milk replacer, 2:1 ratio, which was supplemented with enteric bacteria made from a stock created from a specimen obtained from an infant with surgical NEC five times per day. Additionally, the mice were subjected to hypoxia (5% O2-95% N2) for 10 min in a hypoxia chamber (Billups-Rothenberg) twice daily for 4 days. The C34 analogues were administered by oral gavage during the induction of NEC at the dose of 10 mg per kg body weight per day. […]
RNA isolation, cDNA synthesis and qPCR. Total RNA was isolated using the RNeasy mini kit (Qiagen) and complementary DNA was synthesized from 0.5 μg RNA using QuantiTect Reverse Transcription kit (Qiagen) following the manufacturer's protocols. The mRNA quantification was performed on the Bio-Rad CFX96 Real-Time System (Bio-Rad) using iTaq™ universal SYBR® Green supermix (Bio-Rad) and Bio-Rad CFX Manager 3.1 software was used to collect data from qRT-PCR. […]
Statistical Analysis. Transcript levels for inflammatory biomarkers were assessed by performing a one-way ANOVA statistical analysis followed by multiple comparison. […]

mice with NEC [2] = experiment: Mouse NEC model, H&E staining of ileal tissue sections; assay type: in vivo; details: oral gavage 10 mg per kg body weight per day, FIG. 13
Text: Mouse NEC model. Experimental NEC was induced in a well validated and reproducible model in 7-day-old mice of either gender, which were randomly divided into control and test groups, by gavage feeding newborn mice with formula containing Similac Advance infant formula (Abbott Nutrition): Esbilac (PetAg) canine milk replacer, 2:1 ratio, which was supplemented with enteric bacteria made from a stock created from a specimen obtained from an infant with surgical NEC five times per day. Additionally, the mice were subjected to hypoxia (5% O2-95% N2) for 10 min in a hypoxia chamber (Billups-Rothenberg) twice daily for 4 days. The C34 analogues were administered by oral gavage during the induction of NEC at the dose of 10 mg per kg body weight per day. Age-matched breast milk-fed mouse pups were used as non-NEC controls. The relative mRNA expression levels of Toll-like receptor 4 (Tlr4) (FIG. 3), interleukin 6 (Il6) (FIG. 4), interleukin 1 beta (Il1b) (FIG. 5), tumor necrosis factor (Tnf) (FIG. 6) and lipocalin 2 (Lcn2) (FIG. 7) were shown.
Hematoxylin and eosin (H&E) staining. […]

## CC(C)CC1OC(COC(=O)CC(C)(C)C)C(OC(=O)CC(C)(C)C)C(OC(=O)CC(C)(C)C)C1OC(=O)CC(C)(C)C (centres unmarked) [Compound C281]
Mice with NEC [1]
  necrotizing enterocolitis inflammation markers Tlr4, Il6, Il1b, Tnf, Lcn2 (relative mRNA expression in ileum): robust response
Mice with NEC [2]
  tissue architecture of the intestinal lining (H&E): preserve the tissue architecture of the intestinal lining
